Laboratory results published in patent US4943566A, “Novel 17-aryl-steroids” (Roussel Uclafi, priority 1987, dated 1990).

Test system: mammary Tumoral cells MCF-7
Assay: Anti-proliferative activity against the increase of mammary tumoral cells MCF-7 (ADN by DABA fluorimetry)
Type: cell-based
Conditions: Homo sapiens, MCF7, 144 h; MCF-7 cells, SVF medium, 6 days, ADN content; read-out: CI50 in nM (concentration which inhibits by 50% the increase in the MCF 7 cells)
Procedure: The cell culture line MCF-7 was maintained in culture in SVF (1) medium at 37° C. in a humid atmosphere containing 5% CO2. The cells at subconfluence were collected by trypsination (0.05% trypsine, 0.02% EDTA) then rinsed by gentle centrifiguation. A sample of the cells in suspension was counted by the Malassez cell. To study the increase, the cells resuspended in SVF medium were innoculated at a rate of 30,000 cells per well in a multiwell plate (24 wells per 2.5 cm^2) 24 hours after the innoculation (Day 0), the test compound was added to the medium in an ethanolic solution (final ethanol concentration is 0.1%) a concentration of 10^-6 M. The control wells received the same concentration of ethanol. The mediums were totally renewed at 48 hours. At the end of the experiment (Day 6), the medium was aspirated and the cells were immediately fixed by 150 μl of methanol after a dose of ADN. The anti-proliferative activity of the products was determined by the capacity to inhibit ADN increase.
ADN is dosed by a fluorimetric method using DABA (3,5-diamino benzoic acid). 150 μl of DABA was added to each well and the plates were incubated for 45 minutes at 56° C. and then 1.5 ml of 1N hydrochloric acid was added. The fluoresence was measured with a fluorimeter (excitement length 400 nM-length of emission wave 500 nM). The amount of ADN per well was evaluated with respect to a standard scale obtained by treating under the same conditions an ADN standard of the calf thymus. The concentration in nM which inhibit by 50% the increase in the MCF 7 cells or CI50 was determined in the same manner with the results of the following Table.
The medium for culture of calf fetal serum (SVF) was prepared as follows: MEM medium (minimal essential medium) to which was added non-essential amino acids (GIBCO), peni-strepto (penicillin 100 U/ml, streptomycine 0.1 mg/ml), 0.1% fungizone, 50 ng/ml of insulin and a 10% final concentration of calf fetal serum free of endrogenic steroids.

Row | IC50 | Compound
1 | 1000 nM | COc1ccc(C2=CC[C@H]3[C@@H]4CCC5=CC(=O)CCC5=C4[C@@H](c4ccc(N(C)C)cc4)C[C@]23C)cc1 [Example 5, 11β-(4-dimethylamino-phenyl)-17-(4-methoxy-phenyl)-Δ^4,9,16-estratriene-3-one]
2 | 800 nM | CN(C)c1ccc(C2=CC[C@H]3[C@@H]4CCC5=CC(=O)CCC5=C4[C@@H](c4ccc(N(C)C)cc4)C[C@]23C)cc1 [Example 3, 11β,17-bis-(4-dimethylamino-phenyl)-Δ^4,9,16-estratriene-3-one]
3 | 50 nM | CN(C)c1ccc([C@H]2C[C@]3(C)C(c4ccc(O)cc4)=CC[C@H]3[C@@H]3CCC4=CC(=O)CCC4=C32)cc1 [6 Product B]
4 | 50 nM | CN(C)c1ccc([C@H]2C[C@@]3(C)[C@@H](CC[C@@]3(O)c3ccc(O)cc3)[C@@H]3CCC4=CC(=O)CCC4=C32)cc1 [6 Product A]
